Patent US20230092389A1, “UNIT DOSES, AEROSOLS, KITS, AND METHODS FOR TREATING HEART CONDITIONS BY PULMONARY ADMINISTRATION” (InCarda Therapeutics, Inc., priority 2017, published 2023)
Where “and” joins values, the source holds several entries; their conditions need not be identical. Equal entries are not always repeated. Where two headings read alike, the source gives them in different places.

Experiments:
[1] = cited from earlier work
clinical = details: human, in vivo; for Tmax: Tmax (min after EOI)
Text: 3 cohorts of subjects, in total 34 healthy adult volunteers, were recruited for Part A study.
Part B was an open label non-randomized crossover in a cohort of 6 evaluable healthy adult volunteers.

porcine model = experiment: Slow versus rapid IV infusion, porcine model; type: in vivo, pig; details: slow (10 min) vs rapid (2 min) IV infusion
[2] = beagle, dog, in vivo
Text: After induction of AF, animals were first given vehicle (0.9% NaCl, volume-matched) via IT installation.

healthy volunteers = experiment: Phase 1 (FLE-001) pulmonary safety: spirometry, SpO2, auscultation, chest x-ray; type: in vivo, human
Procedure: Pulmonary safety was assessed by performing lung spirometry tests and measuring peripheral oxygen saturation (SpO2%) prior to dosing and at various times after completion of the inhalation. Lung spirometry tests evaluated all lung function parameters, including forced vital capacity (FVC), forced expiratory volume in 1 second (FEV1), peak expiratory flow (PEF), and forced expiratory flow at 25% and 75% intervals (FEF25-75). Auscultation and respiration rate were also measured prior to dosing and at various times after inhalation. Chest x-rays were performed on subjects before and after flecainide inhalation.

[3] = test system: pigs with induced atrial fibrillation; experiment: ACh and burst-pacing induced AF duration, IT instillation, pigs (Example 5); type: in vivo, Yorkshire pigs; details: for AF duration, mean: n=3, no drug 11±0.6
Procedure: At one min after intrapericardial administration of ACh (1 ml of 100 mM), burst pacing was performed to initiate AF in the control cohort (FIG. 60). In the experimental cohort, after ACh and burst-pacing-induced AF, a stable period of 2 min of AF was allowed (FIG. 60). […] Table 12; FIG. 61).

[4] = test system: beagle dogs with induced AF; experiment: Cardioversion of induced AF by IT or IV flecainide, anesthetized dogs (Example 7); type: in vivo; details: for Time to NSR, individual animals: cumulative dose 0.75-1.0 mg/kg, animals 001-006
Procedure: The study was carried out in anesthetized healthy adult beagle dogs with induced AF. Acute AF was induced using the combination of phenylephrine ([…]), to increase heterogeneity of atrial refractory periods via increased loading and through a baroreceptor-mediated increase in parasympathetic efferent activity, and right atrial burst pacing (40-50 Hz for ˜15 min). The AF induced using this method was, in general, stable for more than 30 mins.
The cardiac rhythm was monitored prior to, during AF, and up to 10 min post-dosing and/or until conversion to NSR.

[5] = IV 2 mg/Kg, n = 3, Mean ± SEM, package insert
[6] = Cohort 1, 20 mg eTLD, 3 hours Post-dose
[7] = Cohort 1, 20 mg eTLD, 12 hours Pre-dose
[8] = Cohort 1, 20 mg eTLD, 24 hours Post-dose
[9] = Cohort 2, 40 mg eTLD, 3 hours Post-dose
[10] = Cohort 2, 40 mg eTLD, 12 hours Pre-dose
[11] = Cohort 2, 40 mg eTLD, 24 hours Post-dose

Structure (SMILES): O=C(NCC1CCCCN1)c1cc(OCC(F)(F)F)ccc1OCC(F)(F)F (stereo not drawn) [flecainide]
- AUClast [1, 5]: 4211 ± 456 ng·h/mL
- Cmax [1, 5]: 1644 ± 534 ng/mL
- Tmax ([1]; IV 2 mg/Kg, n = 3, package insert): 10.0 min
- Dist. t1/2 ([1]; in vivo, iv, 2 mg/kg): 2.6 ± 0.7 min
- Elim. t1/2 ([1]; in vivo, iv, 2 mg/kg): 558 ± 6 min
- half-life (clinical; both): 3.5 to 4.2 min
- half-life (clinical; inhaled or intranasal, 30 mg): 4.67 min
- Tmax (clinical; inhaled or intranasal, 30 mg): ≤ 1 min
- half-life (clinical; iv, 2 mg/kg): 4.28 min
- Tmax (clinical; iv, 2 mg/kg): 1 to 60 min
- correlation of venous plasma levels with QRS duration (porcine model): positively correlated with QRS duration
- Plasma Concentration LV at time of conversion, Mean ± SEM [2]: 1139 ± 380 ng/mL
- Plasma Concentration Venous at time of conversion, Mean ± SEM [2]: 611 ± 213 ng/mL
- plasma concentrations transiently higher in LV than in PA (summary) [2]: ~2.5 fold
- plasma levels higher in LV than in systemic venous circulation [2]: ~2 fold
- plasma concentrations transiently higher in PA than in LV (summary) ([2]; iv): ~3.5 fold
- time after administration when LV and PA concentrations were nearly equal ([2]; iv): 4 to 10 min
- Oxygen Saturation (SpO2%), mean (healthy volunteers; Cohort 1, 20 mg eTLD, 15 min Postdose): 97%
- Oxygen Saturation (SpO2%), mean (healthy volunteers; Cohort 1, 20 mg eTLD, 30 min Postdose): 97%
- Oxygen Saturation (SpO2%), mean (healthy volunteers; Cohort 1, 20 mg eTLD, 45 min Postdose): 97%
- Oxygen Saturation (SpO2%), mean (healthy volunteers; Cohort 1, 20 mg eTLD, 60 min Postdose): 97%
- Oxygen Saturation (SpO2%), mean (healthy volunteers; Cohort 1, 20 mg eTLD, 75 min Postdose): 98%
- Oxygen Saturation (SpO2%), mean (healthy volunteers; Cohort 1, 20 mg eTLD, 90 min Postdose): 98%
- Oxygen Saturation (SpO2%), mean (healthy volunteers; Cohort 1, 20 mg eTLD, 105 min Postdose): 97%
- Oxygen Saturation (SpO2%), mean (healthy volunteers; Cohort 1, 20 mg eTLD, 120 min Postdose): 98%
- FEF25-75, mean (healthy volunteers; [6]): 5.48 L/s
- FEV1, mean (healthy volunteers; [6]): 5.27 L
- FVC, mean (healthy volunteers; [6]): 6.42 L
- PEF, mean (healthy volunteers; [6]): 10.87 L/s
- FEF25-75, mean (healthy volunteers; [7]): 5.38 L/s
- FEV1, mean (healthy volunteers; [7]): 5.26 L
- FVC, mean (healthy volunteers; [7]): 6.02 L
- PEF, mean (healthy volunteers; [7]): 11.30 L/s
- FEF25-75, mean (healthy volunteers; [8]): 5.40 L/s
- FEV1, mean (healthy volunteers; [8]): 5.18 L
- FVC, mean (healthy volunteers; [8]): 6.36 L
- PEF, mean (healthy volunteers; [8]): 11.09 L/s
- Oxygen Saturation (SpO2%), mean (healthy volunteers; Cohort 1, 20 mg eTLD, Predose): 98%
- Oxygen Saturation (SpO2%), mean (healthy volunteers; Cohort 2, 40 mg eTLD, 15 min Postdose): 96%
- Oxygen Saturation (SpO2%), mean (healthy volunteers; Cohort 2, 40 mg eTLD, 30 min Postdose): 97%
- Oxygen Saturation (SpO2%), mean (healthy volunteers; Cohort 2, 40 mg eTLD, 45 min Postdose): 96%
- Oxygen Saturation (SpO2%), mean (healthy volunteers; Cohort 2, 40 mg eTLD, 60 min Postdose): 96%
- Oxygen Saturation (SpO2%), mean (healthy volunteers; Cohort 2, 40 mg eTLD, 75 min Postdose): 97%
- Oxygen Saturation (SpO2%), mean (healthy volunteers; Cohort 2, 40 mg eTLD, 90 min Postdose): 97%
- Oxygen Saturation (SpO2%), mean (healthy volunteers; Cohort 2, 40 mg eTLD, 105 min Postdose): 97%
- Oxygen Saturation (SpO2%), mean (healthy volunteers; Cohort 2, 40 mg eTLD, 120 min Postdose): 97%
- FEF25-75, mean (healthy volunteers; [9]): 4.34 L/s
- FEV1, mean (healthy volunteers; [9]): 4.96 L
- FVC, mean (healthy volunteers; [9]): 6.19 L
- PEF, mean (healthy volunteers; [9]): 10.66 L/s
- FEF25-75, mean (healthy volunteers; [10]): 5.00 L/s
- FEV1, mean (healthy volunteers; [10]): 5.04 L
- FVC, mean (healthy volunteers; [10]): 6.18 L
- PEF, mean (healthy volunteers; [10]): 10.83 L/s
- FEF25-75, mean (healthy volunteers; [11]): 4.80 L/s
- FEV1, mean (healthy volunteers; [11]): 5.08 L
- FVC, mean (healthy volunteers; [11]): 6.39 L
- PEF, mean (healthy volunteers; [11]): 11.14 L/s
- Oxygen Saturation (SpO2%), mean (healthy volunteers; Cohort 2, 40 mg eTLD, Predose): 97%
- respiratory rate (healthy volunteers; Cohorts 1, 2, 3, 5): minimal or no changes
- standard lung spirometry measurements and peripheral O2 saturation (healthy volunteers; Cohorts 1, 2, 3, 5): normal before and after
- SpO2 pre-dose and post-dose values (healthy volunteers; Cohorts 1 and 2): 97-98%
- lung function parameters (FVC, FEV1, PEF, FEF25-75) pre-dose and post-dose (healthy volunteers; Cohorts 1 and 2): within the normal range for the population studied
- Auscultation (healthy volunteers; inhaled 20, 30, 40 mg eTLD): normal
- Chest x-rays (healthy volunteers; inhaled 20, 30, 40 mg eTLD): normal and showed no changes
- respiration rate (healthy volunteers; inhaled 20, 30, 40 mg eTLD): No changes
- recurrence of AF after restoration of sinus rhythm ([3]; 30-min window of observation): no recurrence of AF occurred
- reduction in AF duration from the untreated condition ([3]; IT 1.5 mg/kg): 73%
- AF duration, mean ([3]; IT 1.5 mg/kg): 3 ± 0.2 min
- AF duration, mean ([3]; IT 1.5 mg/kg, listed as Flecainide): 3 min
- AF duration, individual pigs ([3]; IT 1.5 mg/kg, pigs 239, 236, 238, no drug 12, 10, 12): 3 min (2×) and 4 min
- effects in BP, VR and LV dP/dtmax upon conversion, IV vs IT ([4]; FIG. 69): Flecainide given IV caused greater effects
- dogs converted from AF to NSR ([4]; IT): 6/6
- representative ECG: conversion of AF to NSR ([4]; IT 0.75 mg/kg (FIGS. 68A-D)): conversion of AF to NSR
- Time to NSR, individual animals ([4]; IT, cumulative IT dose 0.75 mg/kg): 12 s and 23 s and 62 s
- Time to NSR, individual animals ([4]; IT, cumulative IT dose 0.75 (0.25 + 0.5) mg/kg): 147 s and 52 s
- Time to NSR, individual animals ([4]; IT, cumulative IT dose 1.0 (0.75 + 0.25) mg/kg): 83 s
- Time to NSR, Mean ± SEM ([4]; IT, mean dose 0.79 ± 0.04 mg/kg, 6 dogs, 0.04 mg/kg): 63 ± 18 s
- dogs converted from AF to NSR ([4]; IV bolus): 2/2
- time to conversion of AF to NSR ([4]; IV bolus): 29 s
- sufficiency of LV (left atrium) levels to terminate AF ([4]; pulmonary delivery): sufficient to rapidly terminate AF
